Assay results published in patent US20160021921A1, “PRETERM INFANT NUTRITIONAL COMPOSITIONS CONTAINING BETA-HYDROXY-BETA-METHYLBUTYRIC ACID” (ABBOTT LABORATORIES, priority 2013, published 2016).
“Also recorded” adds a separate entry of the source.

Legend:
Assay type in all cases: in vivo, neonatal pigs
MURF1 = test: Expression of MURF1 in muscles, immunoblotting; details: one hour
Description: (§1) Overnight fasted neonatal pigs (5-7 days old) were infused with HMB at 0, 20, 100, or 400 μmol·kg^−1·hr^−1 HMB. Blood plasma concentrations of the following circulating substrates were measured.
(§2) At the end of the infusion, the piglets were sacrificed and the fractional protein synthesis rates were measured by measuring ^3H incorporation into protein fractions after a flooding dose of L[4-^3H]phenylalanine using the method set forth in Garlick, P. J., “A rapid and convenient technique for measuring the rate of protein synthesis in tissues by injection of [3H]Phenylalanine,” Biochem J (1980), Vol. 192, 719-723. Activation of translation initiation was measured in the stomach, duodenum, jejunum, colon, pancreas, kidney, brain and skin. The abundance of intracellular proteins involved in signaling of protein synthesis and in processes related to protein degradation was measured in tissue homogenates by immunoblotting using commercially available antibodies.

elF2α = test: Phosphorylation of elF2α in muscles, immunoblotting; details: one hour
Description: as §1, §2

S6K1 = test: Phosphorylation of S6K1 in muscles, immunoblotting; details: one hour
Description: as §1, §2

Atrogin-1 = test: Expression of Atrogin-1 in muscles, immunoblotting; details: one hour
Description: as §1, §2

4EBP1 = test: Phosphorylation of 4EBP1 in muscles, immunoblotting; details: one hour
Description: as §1, §2

[1] = tested on: protein synthesis in skeletal muscles (longissimus dorsi, gastrocnemius, soleus, diaphragm); test: Fractional protein synthesis rate in skeletal muscles, L[4-3H]phenylalanine flooding dose
Description: as §1, §2

eEF2 = test: Phosphorylation of eEF2 in muscles, immunoblotting; details: one hour
Description: as §1, §2

[2] = tested on: protein synthesis in the lung and spleen; test: Fractional protein synthesis rate in lung and spleen; details: 20 μmol·kg^−1·hr^−1 HMB for one hour
Description: as §1, §2

LC3-II/LC3-I = test: Ratio of LC3-II/LC3-I in muscles (autophagy/lysosomal protein degradation); details: one hour
Description: as §1, §2

amino acid transporters = test: Level of amino acid transporters in piglet tissues; details: HMB-infused piglets
Description: as §2

e1F4E•e1F4G complex = test: Formation of the active e1F4E•e1F4G complex in muscles (FIG. 11); details: one hour
Description: as §1, §2

[3] = 20 μmol·kg^−1·hr^−1 HMB, diaphragm
[4] = 20 μmol·kg^−1·hr^−1 HMB, longissimus dorsi, gastrocnemius, soleus
[5] = 100 μmol·kg^−1·hr^−1 HMB, diaphragm
[6] = 100 μmol·kg^−1·hr^−1 HMB, longissimus dorsi, gastrocnemius, soleus

SMILES: CC(C)(O)CC(=O)O [HMB, beta-hydroxy-beta-methylbutyric acid]
- expression of MURF1 (MURF1; 20 μmol·kg^−1·hr^−1 HMB): did not affect
- expression of MURF1 (MURF1; 100 μmol·kg^−1·hr^−1 HMB): did not affect
- phosphorylation of elF2a (elF2α; 20 μmol·kg^−1·hr^−1 HMB): did not affect
- phosphorylation of elF2a (elF2α; 100 μmol·kg^−1·hr^−1 HMB): did not affect
- phosphorylation of S6K1 (S6K1; [3]): increased
- phosphorylation of S6K1 (S6K1; [4]): increased
- phosphorylation of S6K1 (S6K1; [5]): not
- phosphorylation of S6K1 (S6K1; [6]): increased
- expression of Atrogin-1 (Atrogin-1; 20 μmol·kg^−1·hr^−1 HMB): did not affect
- expression of Atrogin-1 (Atrogin-1; 100 μmol·kg^−1·hr^−1 HMB): did not affect
- phosphorylation of 4EBP1 (4EBP1; [3]): increased
- phosphorylation of 4EBP1 (4EBP1; [4]): increased
- phosphorylation of 4EBP1 (4EBP1; [5]): not
- phosphorylation of 4EBP1 (4EBP1; [6]): increased
- fractional rate of protein synthesis ([1]; 20 μmol·kg^−1·hr^−1 HMB, longissimus dorsi, gastrocnemius, soleus, diaphragm, P<0.05): increased; also recorded: greatest impact
- fractional rate of protein synthesis ([1]; 100 μmol·kg^−1·hr^−1 HMB, gastrocnemius, soleus, diaphragm): not significantly
- fractional rate of protein synthesis ([1]; 100 μmol·kg^−1·hr^−1 HMB, longissimus dorsi muscle, P<0.05): increased
- fractional rate of protein synthesis ([1]; 400 μmol·kg^−1·hr^−1 HMB, skeletal muscles): no significant effect; also recorded: least impact
- effectiveness in increasing protein synthesis compared with leucine ([1]; HMB 20, 100 or 400 vs leucine 400 μmol·kg^−1·hr^−1, longissimus dorsi, gastrocnemius, soleus, diaphragm, duodenum, brain): equal to or more effective; also recorded: as effective as leucine
- phosphorylation of eEF2 (eEF2; 20 μmol·kg^−1·hr^−1 HMB): did not affect
- phosphorylation of eEF2 (eEF2; 100 μmol·kg^−1·hr^−1 HMB): did not affect
- fractional rate of protein synthesis in lung and spleen [2]: increased
- ratio of LC3-II/LC3-I (LC3-II/LC3-I; 20 μmol·kg^−1·hr^−1 HMB): did not affect
- ratio of LC3-II/LC3-I (LC3-II/LC3-I; 100 μmol·kg^−1·hr^−1 HMB): did not affect
- level of amino acid transporters (amino acid transporters): did not affect
- formation of active eIF4E•eIF4G complex (e1F4E•e1F4G complex; [3]): increased
- formation of active eIF4E•eIF4G complex (e1F4E•e1F4G complex; [4]): increased
- formation of active eIF4E•eIF4G complex (e1F4E•e1F4G complex; [5]): not
- formation of active eIF4E•eIF4G complex (e1F4E•e1F4G complex; [6]): increased
